Test results reported in patent publication US9790228B2, “Heterocyclic kinase inhibitors” (Intellikine LLC, priority 2008, dated 2017).

Target: p110β/p85α (Homo sapiens, UniProt P42338)
Assay: PI3K β inhibition assay (TLC lipid kinase or HTRF)
Format: biochemical
Settings: read-out: PI3K β IC50
Outline: (§1)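 IC50 from TLC lipid kinase assay (25 mM HEPES pH 7.4, 10 mM MgCl2, 100 μg/ml phosphatidylinositol, 10 or 100 μM γ-32P-ATP, 5 min RT, phosphorimager) at 10–12 two-fold dilutions, or HTRF (10 μM PIP2, 10 μM ATP, 1 h RT) measuring PIP3 by TR-FRET; 2% DMSO final.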

Sequence of p110β/p85α (P42338 whole entry, looked up): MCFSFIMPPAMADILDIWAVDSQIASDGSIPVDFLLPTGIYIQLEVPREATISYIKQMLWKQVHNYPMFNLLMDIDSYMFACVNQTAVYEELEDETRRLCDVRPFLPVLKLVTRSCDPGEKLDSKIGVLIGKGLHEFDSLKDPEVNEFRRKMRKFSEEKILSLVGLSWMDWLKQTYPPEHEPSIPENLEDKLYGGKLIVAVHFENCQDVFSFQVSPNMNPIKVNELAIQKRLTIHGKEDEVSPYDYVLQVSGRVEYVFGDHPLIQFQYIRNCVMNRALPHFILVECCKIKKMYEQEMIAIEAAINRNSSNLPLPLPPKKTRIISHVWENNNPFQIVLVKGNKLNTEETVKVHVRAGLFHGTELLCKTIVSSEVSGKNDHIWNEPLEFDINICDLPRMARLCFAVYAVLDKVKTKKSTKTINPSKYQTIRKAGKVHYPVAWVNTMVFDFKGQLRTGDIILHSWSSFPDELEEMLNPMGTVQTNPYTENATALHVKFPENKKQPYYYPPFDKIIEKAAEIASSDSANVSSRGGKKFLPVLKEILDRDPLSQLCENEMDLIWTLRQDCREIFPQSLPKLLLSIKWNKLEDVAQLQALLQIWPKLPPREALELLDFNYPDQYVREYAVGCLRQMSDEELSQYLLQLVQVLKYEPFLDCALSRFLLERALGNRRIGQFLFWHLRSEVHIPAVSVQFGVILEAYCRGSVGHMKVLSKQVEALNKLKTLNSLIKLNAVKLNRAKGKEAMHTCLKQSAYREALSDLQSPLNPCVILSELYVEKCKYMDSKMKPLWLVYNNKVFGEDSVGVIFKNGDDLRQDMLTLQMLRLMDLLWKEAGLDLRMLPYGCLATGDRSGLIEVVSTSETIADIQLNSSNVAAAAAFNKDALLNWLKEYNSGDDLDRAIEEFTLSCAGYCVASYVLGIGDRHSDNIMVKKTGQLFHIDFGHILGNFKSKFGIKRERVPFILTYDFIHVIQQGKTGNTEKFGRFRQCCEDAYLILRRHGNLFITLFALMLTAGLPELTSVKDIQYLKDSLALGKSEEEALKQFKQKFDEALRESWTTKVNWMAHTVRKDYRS

Row | Compound | IC50
1 | Nc1ncnc2c1c(-c1cc(O)cc(F)c1)nn2Cc1cc2c(nc1-c1ccccc1F)CCC2 [Compound 101] | > 1000 nM
2 | Nc1ncnc2c1c(-c1cnn(CCO)c1)nn2Cc1cc2ccccc2nc1-c1ccccc1 [Compound 179] | > 1000 nM
3 | CC(=O)Nc1nc2ccc(-c3nn(Cc4cc5ccccc5nc4-c4ccccc4C)c4ncnc(N)c34)cc2s1 [Compound 84] | > 1000 nM
4 | Nc1ncnc2c1c(-c1cc(O)cc(F)c1)nn2Cc1cc2ccccc2nc1-c1cccnc1 [Compound 55] | > 1000 nM
5 | Nc1nc2cc(-c3nn(Cc4cc5ccccc5nc4-c4ccccc4)c4ncnc(N)c34)ccc2o1 [Compound 145] | > 1000 nM
6 | Nc1ncnc2ccc(-c3nn(Cc4cc5ccccc5nc4N4CCOCC4)c4ncnc(N)c34)cc12 [Compound 142] | > 1000 nM
7 | CC(=O)Nc1nc2ccc(-c3nn(Cc4cc5ccccc5nc4-c4ccccc4)c4ncnc(N)c34)cc2s1 [Compound 92] | > 1000 nM
8 | Nc1ncnc2c1c(-c1cc(O)cc(F)c1)nn2Cc1nc2ccccc2nc1N1CCCC1 [Compound 104] | > 1000 nM
9 | CN1CCN(c2nc3ccccc3cc2Cn2nc(-c3cnc4[nH]ccc4c3)c3c(N)ncnc32)CC1 [Compound 74] | 100 to 1000 nM
10 | Nc1ncnc2c1c(/C=C1/SC(=O)NC1=O)nn2Cc1cc2ccccc2nc1-c1ccccc1F [Compound 192] | > 1000 nM
11 | Cc1ccccc1-c1nc2c(C)cccc2cc1Cn1nc(-c2cc(O)cc(F)c2)c2c(N)ncnc21 [Compound 8] | > 1000 nM
12 | Nc1nc2cc(-c3nn(Cc4cc5ccccc5nc4N4CCOCC4)c4ncnc(N)c34)ccc2o1 [Compound 141] | > 1000 nM
13 | Cc1ccccc1-c1nc2ccccc2cc1Cn1nc(I)c2c(N)ncnc21 [Compound 3] | > 1000 nM
14 | Nc1ncnc2c1c(-c1cc(O)cc(F)c1)nn2Cc1cc2ccccc2nc1N1CCCC1 [Compound 2] | 100 to 1000 nM
15 | Cc1ccccc1-c1nc2ccccc2nc1Cn1nc(-c2cc(O)cc(F)c2)c2c(N)ncnc21 [Compound 107] | > 1000 nM

Test system: Balb/c splenic B cells
Assay: B cell activation and proliferation assay (Alamar Blue)
Format: cell-based, mouse
Settings: Mus musculus, B-cell
Description: The ability of one or more subject compounds to inhibit B cell activation and proliferation is determined according to standard procedures known in the art. For example, an in vitro cellular proliferation assay is established that measures the metabolic activity of live cells. The assay is performed in a 96 well microtiter plate using Alamar Blue reduction. Balb/c splenic B cells are purified over a Ficoll-Paque™ PLUS gradient followed by magnetic cell separation using a MACS B cell Isolation Kit (Miletenyi). Cells are plated in 90 ul at 50,000 cells/well in B Cell Media (RPMI+10% FBS+Penn/Strep+50 uM bME+5 mM HEPES). A compound disclosed herein is diluted in B Cell Media and added in a 10 ul volume. Plates are incubated for 30 min at 37 C and 5% CO2 (0.2% DMSO final concentration). A 50 ul B cell stimulation cocktail is then added containing either 10 ug/ml LPS or 5 ug/ml F(ab′)2 Donkey anti-mouse IgM plus 2 ng/ml recombinant mouse IL4 in B Cell Media. Plates are incubated for 72 hours at 37° C. and 5% CO2. A volume of 15 uL of Alamar Blue reagent is added to each well and plates are incubated for 5 hours at 37 C and 5% CO2. Alamar Blue fluoresce is read at 560Ex/590Em, and IC50 or EC50 values are calculated using GraphPad Prism 5.

Row | Compound | EC50
16 | Nc1ncnc2c1c(-c1cc(O)cc(F)c1)nn2Cc1cc2c(nc1-c1ccccc1F)CCC2 [Compound 101] | 100 to 1000 nM
17 | Nc1ncnc2c1c(-c1cnn(CCO)c1)nn2Cc1cc2ccccc2nc1-c1ccccc1 [Compound 179] | 100 to 1000 nM
18 | CC(=O)Nc1nc2ccc(-c3nn(Cc4cc5ccccc5nc4-c4ccccc4C)c4ncnc(N)c34)cc2s1 [Compound 84] | < 100 nM
19 | Nc1ncnc2c1c(-c1cc(O)cc(F)c1)nn2Cc1cc2ccccc2nc1-c1cccnc1 [Compound 55] | < 100 nM
20 | Nc1nc2cc(-c3nn(Cc4cc5ccccc5nc4-c4ccccc4)c4ncnc(N)c34)ccc2o1 [Compound 145] | < 100 nM
21 | Nc1ncnc2ccc(-c3nn(Cc4cc5ccccc5nc4N4CCOCC4)c4ncnc(N)c34)cc12 [Compound 142] | < 100 nM
22 | CC(=O)Nc1nc2ccc(-c3nn(Cc4cc5ccccc5nc4-c4ccccc4)c4ncnc(N)c34)cc2s1 [Compound 92] | < 100 nM
23 | Nc1ncnc2c1c(-c1cc(O)cc(F)c1)nn2Cc1nc2ccccc2nc1N1CCCC1 [Compound 104] | < 100 nM
24 | CN1CCN(c2nc3ccccc3cc2Cn2nc(-c3cnc4[nH]ccc4c3)c3c(N)ncnc32)CC1 [Compound 74] | < 100 nM
25 | Nc1ncnc2c1c(/C=C1/SC(=O)NC1=O)nn2Cc1cc2ccccc2nc1-c1ccccc1F [Compound 192] | 100 to 1000 nM
26 | Cc1ccccc1-c1nc2c(C)cccc2cc1Cn1nc(-c2cc(O)cc(F)c2)c2c(N)ncnc21 [Compound 8] | < 100 nM
27 | Nc1nc2cc(-c3nn(Cc4cc5ccccc5nc4N4CCOCC4)c4ncnc(N)c34)ccc2o1 [Compound 141] | < 100 nM
28 | Cc1ccccc1-c1nc2ccccc2cc1Cn1nc(I)c2c(N)ncnc21 [Compound 3] | 100 to 1000 nM
29 | Nc1ncnc2c1c(-c1cc(O)cc(F)c1)nn2Cc1cc2ccccc2nc1N1CCCC1 [Compound 2] | < 100 nM
30 | Cc1ccccc1-c1nc2ccccc2nc1Cn1nc(-c2cc(O)cc(F)c2)c2c(N)ncnc21 [Compound 107] | < 100 nM

Target: p110γ (Homo sapiens (Human), UniProt P48736)
Assay: PI3K γ inhibition assay (TLC lipid kinase or HTRF)
Format: biochemical
Settings: not given
Outline: as §1

Sequence of p110γ (P48736 whole entry): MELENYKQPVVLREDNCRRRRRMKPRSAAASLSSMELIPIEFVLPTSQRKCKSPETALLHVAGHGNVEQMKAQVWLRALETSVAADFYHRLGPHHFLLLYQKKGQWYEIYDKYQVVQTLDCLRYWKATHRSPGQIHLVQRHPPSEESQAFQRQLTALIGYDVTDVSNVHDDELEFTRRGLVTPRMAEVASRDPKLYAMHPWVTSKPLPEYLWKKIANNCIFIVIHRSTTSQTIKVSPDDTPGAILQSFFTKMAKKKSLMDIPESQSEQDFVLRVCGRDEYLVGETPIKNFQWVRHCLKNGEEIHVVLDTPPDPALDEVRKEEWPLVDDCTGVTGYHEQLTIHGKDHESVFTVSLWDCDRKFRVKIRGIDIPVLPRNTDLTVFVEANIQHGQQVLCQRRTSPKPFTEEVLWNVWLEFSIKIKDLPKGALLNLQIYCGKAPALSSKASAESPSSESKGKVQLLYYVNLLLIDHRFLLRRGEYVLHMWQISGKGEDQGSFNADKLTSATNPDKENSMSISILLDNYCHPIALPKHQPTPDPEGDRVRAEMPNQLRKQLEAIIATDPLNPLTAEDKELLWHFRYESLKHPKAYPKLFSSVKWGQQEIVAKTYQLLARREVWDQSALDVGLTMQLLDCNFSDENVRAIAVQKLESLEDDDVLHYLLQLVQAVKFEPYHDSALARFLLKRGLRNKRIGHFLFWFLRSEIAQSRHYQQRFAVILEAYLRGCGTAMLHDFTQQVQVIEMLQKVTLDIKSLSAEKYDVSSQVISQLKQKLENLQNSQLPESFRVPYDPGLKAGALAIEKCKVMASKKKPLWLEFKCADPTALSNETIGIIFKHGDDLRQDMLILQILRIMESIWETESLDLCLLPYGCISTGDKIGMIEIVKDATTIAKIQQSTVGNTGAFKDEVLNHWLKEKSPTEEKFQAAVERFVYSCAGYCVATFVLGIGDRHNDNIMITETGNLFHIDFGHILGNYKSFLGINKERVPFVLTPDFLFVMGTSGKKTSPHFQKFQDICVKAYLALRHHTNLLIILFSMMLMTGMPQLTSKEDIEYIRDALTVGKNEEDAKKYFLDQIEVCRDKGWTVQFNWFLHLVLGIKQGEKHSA

Row | Compound | IC50
31 | Nc1ncnc2c1c(-c1cc(O)cc(F)c1)nn2Cc1cc2c(nc1-c1ccccc1F)CCC2 [Compound 101] | > 1000 nM
32 | Nc1ncnc2c1c(-c1cnn(CCO)c1)nn2Cc1cc2ccccc2nc1-c1ccccc1 [Compound 179] | > 1000 nM
33 | CC(=O)Nc1nc2ccc(-c3nn(Cc4cc5ccccc5nc4-c4ccccc4C)c4ncnc(N)c34)cc2s1 [Compound 84] | < 100 nM
34 | Nc1ncnc2c1c(-c1cc(O)cc(F)c1)nn2Cc1cc2ccccc2nc1-c1cccnc1 [Compound 55] | 100 to 1000 nM
35 | Nc1nc2cc(-c3nn(Cc4cc5ccccc5nc4-c4ccccc4)c4ncnc(N)c34)ccc2o1 [Compound 145] | < 100 nM
36 | Nc1ncnc2ccc(-c3nn(Cc4cc5ccccc5nc4N4CCOCC4)c4ncnc(N)c34)cc12 [Compound 142] | < 100 nM
37 | CC(=O)Nc1nc2ccc(-c3nn(Cc4cc5ccccc5nc4-c4ccccc4)c4ncnc(N)c34)cc2s1 [Compound 92] | < 100 nM
38 | Nc1ncnc2c1c(-c1cc(O)cc(F)c1)nn2Cc1nc2ccccc2nc1N1CCCC1 [Compound 104] | 100 to 1000 nM
39 | CN1CCN(c2nc3ccccc3cc2Cn2nc(-c3cnc4[nH]ccc4c3)c3c(N)ncnc32)CC1 [Compound 74] | > 1000 nM
40 | Nc1ncnc2c1c(/C=C1/SC(=O)NC1=O)nn2Cc1cc2ccccc2nc1-c1ccccc1F [Compound 192] | < 100 nM
41 | Cc1ccccc1-c1nc2c(C)cccc2cc1Cn1nc(-c2cc(O)cc(F)c2)c2c(N)ncnc21 [Compound 8] | < 100 nM
42 | Nc1nc2cc(-c3nn(Cc4cc5ccccc5nc4N4CCOCC4)c4ncnc(N)c34)ccc2o1 [Compound 141] | < 100 nM
43 | Cc1ccccc1-c1nc2ccccc2cc1Cn1nc(I)c2c(N)ncnc21 [Compound 3] | 100 to 1000 nM
44 | Nc1ncnc2c1c(-c1cc(O)cc(F)c1)nn2Cc1cc2ccccc2nc1N1CCCC1 [Compound 2] | < 100 nM
45 | Cc1ccccc1-c1nc2ccccc2nc1Cn1nc(-c2cc(O)cc(F)c2)c2c(N)ncnc21 [Compound 107] | > 1000 nM

Target: p110δ/p85α (Homo sapiens (Human), UniProt O00329)
Assay: PI3K δ inhibition assay (TLC lipid kinase or HTRF)
Format: biochemical
Settings: not given
Outline: as §1

Sequence of p110δ/p85α (O00329 whole entry): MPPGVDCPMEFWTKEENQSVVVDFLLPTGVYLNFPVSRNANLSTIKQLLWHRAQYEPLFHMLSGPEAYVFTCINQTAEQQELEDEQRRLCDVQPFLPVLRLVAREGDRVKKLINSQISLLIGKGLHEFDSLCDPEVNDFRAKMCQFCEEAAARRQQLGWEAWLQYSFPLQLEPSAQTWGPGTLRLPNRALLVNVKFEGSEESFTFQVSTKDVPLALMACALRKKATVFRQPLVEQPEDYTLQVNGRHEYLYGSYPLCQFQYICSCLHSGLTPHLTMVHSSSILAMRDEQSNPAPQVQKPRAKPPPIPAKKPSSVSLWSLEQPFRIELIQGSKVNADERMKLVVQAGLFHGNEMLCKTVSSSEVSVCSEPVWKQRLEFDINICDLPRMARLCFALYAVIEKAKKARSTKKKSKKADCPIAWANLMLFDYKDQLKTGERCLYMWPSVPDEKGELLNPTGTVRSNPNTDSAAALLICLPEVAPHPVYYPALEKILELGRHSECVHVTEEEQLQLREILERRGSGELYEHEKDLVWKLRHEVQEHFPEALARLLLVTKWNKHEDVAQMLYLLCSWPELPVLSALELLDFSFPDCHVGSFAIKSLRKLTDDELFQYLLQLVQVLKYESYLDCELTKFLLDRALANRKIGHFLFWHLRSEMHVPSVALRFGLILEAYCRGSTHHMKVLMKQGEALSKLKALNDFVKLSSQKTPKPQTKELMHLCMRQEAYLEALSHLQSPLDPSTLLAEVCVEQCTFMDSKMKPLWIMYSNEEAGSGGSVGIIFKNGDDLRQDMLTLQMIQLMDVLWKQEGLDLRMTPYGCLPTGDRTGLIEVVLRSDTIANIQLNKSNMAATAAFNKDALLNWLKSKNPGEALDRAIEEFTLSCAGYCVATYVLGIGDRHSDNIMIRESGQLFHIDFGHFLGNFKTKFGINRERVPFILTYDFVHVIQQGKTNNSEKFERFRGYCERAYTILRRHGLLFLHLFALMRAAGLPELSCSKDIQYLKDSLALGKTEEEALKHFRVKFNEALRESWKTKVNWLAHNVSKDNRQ
Sequence of p110δ/p85α (P27986 whole entry partner): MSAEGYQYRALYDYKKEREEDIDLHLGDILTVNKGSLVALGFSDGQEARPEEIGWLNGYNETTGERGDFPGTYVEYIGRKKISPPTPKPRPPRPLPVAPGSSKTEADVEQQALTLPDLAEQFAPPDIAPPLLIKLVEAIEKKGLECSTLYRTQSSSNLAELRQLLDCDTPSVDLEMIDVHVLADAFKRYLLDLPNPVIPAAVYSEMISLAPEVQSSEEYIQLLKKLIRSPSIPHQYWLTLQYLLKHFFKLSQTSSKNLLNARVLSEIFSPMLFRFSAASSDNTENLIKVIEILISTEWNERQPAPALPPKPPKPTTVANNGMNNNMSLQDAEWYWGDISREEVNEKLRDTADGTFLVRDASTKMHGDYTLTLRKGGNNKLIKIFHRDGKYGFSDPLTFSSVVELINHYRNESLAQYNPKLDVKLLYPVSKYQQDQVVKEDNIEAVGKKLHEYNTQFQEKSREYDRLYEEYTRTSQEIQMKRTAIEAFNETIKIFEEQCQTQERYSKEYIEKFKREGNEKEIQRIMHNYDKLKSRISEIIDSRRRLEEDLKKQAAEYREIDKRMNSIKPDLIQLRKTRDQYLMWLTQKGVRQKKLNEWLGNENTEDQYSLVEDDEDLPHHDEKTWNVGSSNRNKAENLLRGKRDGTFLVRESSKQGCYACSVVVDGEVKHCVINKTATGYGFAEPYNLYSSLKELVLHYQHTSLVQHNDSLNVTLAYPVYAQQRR

Row | Compound | IC50
46 | Nc1ncnc2c1c(-c1cc(O)cc(F)c1)nn2Cc1cc2c(nc1-c1ccccc1F)CCC2 [Compound 101] | 100 to 1000 nM
47 | Nc1ncnc2c1c(-c1cnn(CCO)c1)nn2Cc1cc2ccccc2nc1-c1ccccc1 [Compound 179] | 100 to 1000 nM
48 | CC(=O)Nc1nc2ccc(-c3nn(Cc4cc5ccccc5nc4-c4ccccc4C)c4ncnc(N)c34)cc2s1 [Compound 84] | < 100 nM
49 | Nc1ncnc2c1c(-c1cc(O)cc(F)c1)nn2Cc1cc2ccccc2nc1-c1cccnc1 [Compound 55] | < 100 nM
50 | Nc1nc2cc(-c3nn(Cc4cc5ccccc5nc4-c4ccccc4)c4ncnc(N)c34)ccc2o1 [Compound 145] | < 100 nM
51 | Nc1ncnc2ccc(-c3nn(Cc4cc5ccccc5nc4N4CCOCC4)c4ncnc(N)c34)cc12 [Compound 142] | < 100 nM
52 | CC(=O)Nc1nc2ccc(-c3nn(Cc4cc5ccccc5nc4-c4ccccc4)c4ncnc(N)c34)cc2s1 [Compound 92] | < 100 nM
53 | Nc1ncnc2c1c(-c1cc(O)cc(F)c1)nn2Cc1nc2ccccc2nc1N1CCCC1 [Compound 104] | < 100 nM
54 | CN1CCN(c2nc3ccccc3cc2Cn2nc(-c3cnc4[nH]ccc4c3)c3c(N)ncnc32)CC1 [Compound 74] | < 100 nM
55 | Nc1ncnc2c1c(/C=C1/SC(=O)NC1=O)nn2Cc1cc2ccccc2nc1-c1ccccc1F [Compound 192] | < 100 nM
56 | Cc1ccccc1-c1nc2c(C)cccc2cc1Cn1nc(-c2cc(O)cc(F)c2)c2c(N)ncnc21 [Compound 8] | < 100 nM
57 | Nc1nc2cc(-c3nn(Cc4cc5ccccc5nc4N4CCOCC4)c4ncnc(N)c34)ccc2o1 [Compound 141] | < 100 nM
58 | Cc1ccccc1-c1nc2ccccc2cc1Cn1nc(I)c2c(N)ncnc21 [Compound 3] | < 100 nM
59 | Nc1ncnc2c1c(-c1cc(O)cc(F)c1)nn2Cc1cc2ccccc2nc1N1CCCC1 [Compound 2] | < 100 nM
60 | Cc1ccccc1-c1nc2ccccc2nc1Cn1nc(-c2cc(O)cc(F)c2)c2c(N)ncnc21 [Compound 107] | < 100 nM

Target: p110α/p85α (Homo sapiens (Human), UniProt P42336)
Assay: PI3K α inhibition assay (TLC lipid kinase or HTRF)
Format: biochemical
Settings: not given
Outline: as §1

Sequence of p110α/p85α (P42336 whole entry): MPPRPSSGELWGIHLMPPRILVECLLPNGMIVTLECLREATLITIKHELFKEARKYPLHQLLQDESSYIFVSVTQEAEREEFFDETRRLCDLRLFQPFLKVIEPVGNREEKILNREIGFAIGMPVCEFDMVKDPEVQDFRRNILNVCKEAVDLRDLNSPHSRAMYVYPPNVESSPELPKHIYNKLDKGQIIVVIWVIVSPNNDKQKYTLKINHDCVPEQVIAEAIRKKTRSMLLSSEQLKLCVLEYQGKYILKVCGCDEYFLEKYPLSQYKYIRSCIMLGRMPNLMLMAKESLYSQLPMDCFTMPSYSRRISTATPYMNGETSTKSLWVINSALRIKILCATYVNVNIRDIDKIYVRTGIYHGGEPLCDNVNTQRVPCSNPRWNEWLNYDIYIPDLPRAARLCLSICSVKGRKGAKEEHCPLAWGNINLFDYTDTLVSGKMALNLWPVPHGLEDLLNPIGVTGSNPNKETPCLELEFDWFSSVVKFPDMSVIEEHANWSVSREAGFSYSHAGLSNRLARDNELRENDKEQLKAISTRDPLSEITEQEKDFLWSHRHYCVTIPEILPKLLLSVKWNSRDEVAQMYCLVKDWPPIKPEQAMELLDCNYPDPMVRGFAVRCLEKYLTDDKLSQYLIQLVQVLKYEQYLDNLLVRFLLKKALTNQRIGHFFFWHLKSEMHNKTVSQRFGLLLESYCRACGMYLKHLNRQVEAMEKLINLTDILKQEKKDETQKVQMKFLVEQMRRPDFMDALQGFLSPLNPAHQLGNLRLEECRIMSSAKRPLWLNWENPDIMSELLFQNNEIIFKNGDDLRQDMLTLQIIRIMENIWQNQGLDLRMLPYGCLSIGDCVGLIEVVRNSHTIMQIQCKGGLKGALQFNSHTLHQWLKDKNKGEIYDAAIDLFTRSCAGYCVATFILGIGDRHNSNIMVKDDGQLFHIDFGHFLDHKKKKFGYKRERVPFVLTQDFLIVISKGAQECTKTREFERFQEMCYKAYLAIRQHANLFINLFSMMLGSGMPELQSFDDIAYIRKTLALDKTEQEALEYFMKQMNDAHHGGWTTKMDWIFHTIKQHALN
Sequence of p110α/p85α (P27986 whole entry partner): as the sequence (P27986 whole entry partner) above

Row | Compound | IC50
61 | Nc1ncnc2c1c(-c1cc(O)cc(F)c1)nn2Cc1cc2c(nc1-c1ccccc1F)CCC2 [Compound 101] | > 1000 nM
62 | Nc1ncnc2c1c(-c1cnn(CCO)c1)nn2Cc1cc2ccccc2nc1-c1ccccc1 [Compound 179] | > 1000 nM
63 | CC(=O)Nc1nc2ccc(-c3nn(Cc4cc5ccccc5nc4-c4ccccc4C)c4ncnc(N)c34)cc2s1 [Compound 84] | > 1000 nM
64 | Nc1ncnc2c1c(-c1cc(O)cc(F)c1)nn2Cc1cc2ccccc2nc1-c1cccnc1 [Compound 55] | > 1000 nM
65 | Nc1nc2cc(-c3nn(Cc4cc5ccccc5nc4-c4ccccc4)c4ncnc(N)c34)ccc2o1 [Compound 145] | > 1000 nM
66 | Nc1ncnc2ccc(-c3nn(Cc4cc5ccccc5nc4N4CCOCC4)c4ncnc(N)c34)cc12 [Compound 142] | 100 to 1000 nM
67 | CC(=O)Nc1nc2ccc(-c3nn(Cc4cc5ccccc5nc4-c4ccccc4)c4ncnc(N)c34)cc2s1 [Compound 92] | > 1000 nM
68 | Nc1ncnc2c1c(-c1cc(O)cc(F)c1)nn2Cc1nc2ccccc2nc1N1CCCC1 [Compound 104] | > 1000 nM
69 | CN1CCN(c2nc3ccccc3cc2Cn2nc(-c3cnc4[nH]ccc4c3)c3c(N)ncnc32)CC1 [Compound 74] | > 1000 nM
70 | Nc1ncnc2c1c(/C=C1/SC(=O)NC1=O)nn2Cc1cc2ccccc2nc1-c1ccccc1F [Compound 192] | > 1000 nM
71 | Cc1ccccc1-c1nc2c(C)cccc2cc1Cn1nc(-c2cc(O)cc(F)c2)c2c(N)ncnc21 [Compound 8] | > 1000 nM
72 | Nc1nc2cc(-c3nn(Cc4cc5ccccc5nc4N4CCOCC4)c4ncnc(N)c34)ccc2o1 [Compound 141] | 100 to 1000 nM
73 | Cc1ccccc1-c1nc2ccccc2cc1Cn1nc(I)c2c(N)ncnc21 [Compound 3] | > 1000 nM
74 | Nc1ncnc2c1c(-c1cc(O)cc(F)c1)nn2Cc1cc2ccccc2nc1N1CCCC1 [Compound 2] | > 1000 nM
75 | Cc1ccccc1-c1nc2ccccc2nc1Cn1nc(-c2cc(O)cc(F)c2)c2c(N)ncnc21 [Compound 107] | > 1000 nM
